Results as given in patent US12414953B2, “Selective inhibitors of protein arginine methyltransferase 5 (PRMT5)” (Prelude Therapeutics, Incorporated, priority 2019, dated 2025).

Assays:
U-87 MG cells = assay: Cell proliferation assay (CCK-8, day 10); type: cell-based; details: Homo sapiens, 240 h, U-87 MG cell line, read-out: Prolif. IC50
Procedure: One day before experiment, Granta-519 cells were passaged to a density of 0.5×10^6 cells/ml. U-87 MG cells were trypsinized and 2,000 cells were seeded into 96-well plates and allowed to grow overnight. On the day of experiment (day 0), Granta-519 Cells were spun down at 1,500 rpm for 4 min, resuspended in fresh medium to 0.5×10^6 cells/ml and 190 μL of cells were added to 96 well plates. For U-87 MG cells, old medium was removed and replaced with 190 uL fresh medium. Compound working stocks were first diluted at 1:50 with fresh medium in 96 well plate and 10 μL of diluted drugs were added to 96 well plates containing cells and incubated for 3 days. DMSO was used a vehicle control.
One day 3, 50 μL of Granta-519 cells were transferred to a new 96-well plate and 140 uL fresh medium was added. […]
On day 10, 100 μL Granta-519 cells were transferred to a new 96 well plate and 10 μL of Cell Counting Kit-8 (CCK-8, Jojindo, CK04-13) solution was added. […] Plates were incubated in CO2 incubator for 2 hours (Granta-519 cells) or 30 min (U-87 MG cells) and OD450 values were measured with a microplate reader (iMark microplate reader, Bio-Rad). Percentage of viable cells, relative to DMSO vehicle control, were calculated and plotted in Graphpad Prism ([Inhibitor] vs. normalized response−Variable slope) to determine proliferation IC50 values on day 10. […]

[1] = Solubility of HCl salt in solvents, saturated solution analyzed by HPLC; type: physicochemical; details: thermodynamic from solid; for solubility: 21 °C, 21 ± 1° C.; for solubility at 24 hr: 50 °C, 50 ± 1° C.
Procedure: (§1) 3 mL of the tested solvent was added to a 4 mL of vial. Formula IA was added until a cloudy solution was obtained at 21±1° C. About 30 mg additional Formula IA was added to the cloudy solution. The mixture was agitated at 21±1° C. for a weekend, during which the temperature was controlled by IKA® ETS-D5 temperature controller and IKA® RCT basic safety control. The mixture was filtered using a syringe filter (PTFE, […], 13 mm, Agela Technologies Inc.). The satuatred solution was transferred into an HPLC vial, diluted with methanol, and analyzed by HPLC.
as §1, with “2 mL” for “3 mL”, “at 50±1°” for “at 21±1°”, “for 24 hr,” for “for a weekend,”, “The saturated” for “The satuatred”

[2] = organic solvent or mixture, EtOAc
[3] = organic solvent or mixture, EtOH
[4] = organic solvent or mixture, IPA
[5] = organic solvent or mixture, IPAc
[6] = organic solvent or mixture, MeCN
[7] = organic solvent or mixture, Methanol

IC50 (U-87 MG cells) [nM]	solubility [1, 2] [µg/mL]	solubility [1, 3] [µg/mL]	solubility [1, 4] [µg/mL]	solubility [1, 5] [µg/mL]	solubility [1, 6] [µg/mL]	solubility [1, 7] [µg/mL]	solubility ([1]; Water) [µg/mL]	solubility at 24 hr [1, 2] [µg/mL]	solubility at 24 hr [1, 3] [µg/mL]	solubility at 24 hr [1, 4] [µg/mL]	solubility at 24 hr [1, 5] [µg/mL]	solubility at 24 hr [1, 6] [µg/mL]	solubility at 24 hr [1, 7] [µg/mL]	solubility at 24 hr ([1]; Water) [µg/mL]	Compound
54	–	–	–	–	–	–	–	–	–	–	–	–	–	–	Cc1ncnc2c1ccn2[C@@H]1O[C@H]([C@@H]2OCCc3cc(Cl)ccc32)[C@@H](O)[C@H]1O [Formula I, (2S,3S,4R,5R)-2-((R)-6-chloroisochroman-1-yl)-5-(4-methyl-7H-pyrrolo[2,3-d]pyrimidin-7-yl)tetrahydrofuran-3,4-diol]
–	120	7640	960	160	690	> 50000	14700	160	10800	1990	240	1050	> 50000	43800	Cc1ncnc2c1ccn2[C@@H]1O[C@H]([C@@H]2OCCc3cc(Cl)ccc32)[C@@H](O)[C@H]1O [Formula IA, (2S,3S,4R,5R)-2-((R)-6-chloroisochroman-1-yl)-5-(4-methyl-7H-pyrrolo[2,3-d]pyrimidin-7-yl)tetrahydrofuran-3,4-diol]
